This assay has as its target T1, human recombinant HDAC6 (Homo sapiens, UniProt Q9UBN7).
T1 construct: purchased Calbiochem 382180
T1 sequence (Q9UBN7 1-1215): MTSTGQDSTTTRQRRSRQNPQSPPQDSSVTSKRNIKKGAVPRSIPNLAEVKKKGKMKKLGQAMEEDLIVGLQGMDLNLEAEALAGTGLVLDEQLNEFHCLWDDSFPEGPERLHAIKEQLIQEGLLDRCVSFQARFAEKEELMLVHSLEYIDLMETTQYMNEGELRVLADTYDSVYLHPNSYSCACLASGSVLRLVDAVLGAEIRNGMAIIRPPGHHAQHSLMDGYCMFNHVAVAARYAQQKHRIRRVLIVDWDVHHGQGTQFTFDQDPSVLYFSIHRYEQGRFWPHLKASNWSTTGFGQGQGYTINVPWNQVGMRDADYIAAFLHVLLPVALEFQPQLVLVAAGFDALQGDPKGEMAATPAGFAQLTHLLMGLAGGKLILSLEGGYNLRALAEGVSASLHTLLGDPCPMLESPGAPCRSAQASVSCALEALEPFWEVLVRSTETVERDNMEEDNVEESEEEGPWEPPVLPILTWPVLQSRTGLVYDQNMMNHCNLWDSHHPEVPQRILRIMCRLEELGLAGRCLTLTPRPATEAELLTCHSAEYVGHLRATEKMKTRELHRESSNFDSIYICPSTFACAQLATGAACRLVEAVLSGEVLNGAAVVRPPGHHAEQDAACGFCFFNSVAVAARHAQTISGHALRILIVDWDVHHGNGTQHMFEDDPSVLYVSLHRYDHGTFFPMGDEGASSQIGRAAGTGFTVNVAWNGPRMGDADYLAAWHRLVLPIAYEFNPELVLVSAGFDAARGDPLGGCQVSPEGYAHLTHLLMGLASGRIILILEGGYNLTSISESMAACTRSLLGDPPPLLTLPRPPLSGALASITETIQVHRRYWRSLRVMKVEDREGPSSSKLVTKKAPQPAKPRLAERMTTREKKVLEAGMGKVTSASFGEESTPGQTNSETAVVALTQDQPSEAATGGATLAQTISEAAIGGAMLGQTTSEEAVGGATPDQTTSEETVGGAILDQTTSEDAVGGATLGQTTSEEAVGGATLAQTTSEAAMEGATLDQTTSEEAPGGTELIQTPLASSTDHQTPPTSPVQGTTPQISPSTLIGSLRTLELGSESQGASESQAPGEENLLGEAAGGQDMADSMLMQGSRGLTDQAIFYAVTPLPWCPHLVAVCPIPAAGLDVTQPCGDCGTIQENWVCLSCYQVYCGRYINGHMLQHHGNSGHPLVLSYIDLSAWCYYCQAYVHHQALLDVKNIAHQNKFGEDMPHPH
The assay is described as follows: HDAC6 enzyme activity inhibition assay (HDAC Fluorimetric Drug Discovery Kit). Format: biochemical. As to conditions: for HDAC6 selectivity (fold): HDAC6 over HDAC1; for IC50: human recombinant HDAC6, same protocol as HDAC1, read-out: HDAC6. The essentials:
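Fluorimetric deacetylase assay: 5-fold serial compound dilutions, 0.3 μg recombinant human enzyme (HDAC1 or HDAC6, same protocol), 10 μM Fluor de Lys-SIRT1 substrate, 60 min at 30 °C. Signal developed 30 min, measured at 360/460 nm; IC50 values derived.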

On to `CCN1CCN(CCCOc2ccc(N(Cc3ccc(-c4nnc(C(F)F)o4)cc3F)C(=O)N3CCS(=O)(=O)CC3)cc2)CC1` [Compound 21972, N-(4-(5-(difluoromethyl)-1,3,4-oxadiazol-2-yl)-2-fluorobenzyl)-N-(4-(3-(4-ethylpiperazin-1-yl)propoxy)phenyl)thiomorpholine-4-carboxamide 1,1-dioxide], for which the “HDAC6 selectivity (fold)” value worked out at 38 fold and the IC50 was 266 nM.
As to `CCN1CCN(CCCCOc2ccc(N(Cc3ccc(-c4nnc(C(F)F)o4)cc3F)C(=O)N3CCS(=O)(=O)CC3)cc2)CC1` [Compound 21973, N-(4-(5-(difluoromethyl)-1,3,4-oxadiazol-2-yl)-2-fluorobenzyl)-N-(4-(4-(4-ethylpiperazin-1-yl)butoxy)phenyl)thiomorpholine-4-carboxamide 1,1-dioxide], the “HDAC6 selectivity (fold)” value is 39 fold and the IC50 was found to be 256 nM.
In the case of `Cc1nnc(N(Cc2ccc(-c3nnc(C(F)F)o3)cc2F)C(=O)N2CCS(=O)(=O)CC2)s1` [Compound 21979, N-(4-(5-(difluoromethyl)-1,3,4-oxadiazol-2-yl)-2-fluorobenzyl)-N-(5-methyl-1,3,4-thiadiazol-2-yl)thiomorpholine-4-carboxamide 1,1-dioxide], the “HDAC6 selectivity (fold)” value is given as 15 fold and the IC50 amounted to 669 nM.
As for `Cc1nnc(N(Cc2ccc(-c3nnc(C(F)F)o3)cc2F)C(=O)N2CCOCC2)s1` [Compound 21980, N-(4-(5-(difluoromethyl)-1,3,4-oxadiazol-2-yl)-2-fluorobenzyl)-N-(5-methyl-1,3,4-thiadiazol-2-yl)morpholine-4-carboxamide], the “HDAC6 selectivity (fold)” value is 10 fold and the IC50 turned out to be 1030 nM.
`O=C(N1CCOCC1)N(Cc1ccc(-c2nnc(C(F)F)o2)cc1F)c1nncs1` [Compound 21981, N-(4-(5-(difluoromethyl)-1,3,4-oxadiazol-2-yl)-2-fluorobenzyl)-N-(1,3,4-thiadiazol-2-yl) morpholine-4-carboxamide]: the “HDAC6 selectivity (fold)” value came to 13 fold and the IC50 stood at 758 nM.
Turning to `O=C(NCCN1CCOCC1)N(Cc1ccc(-c2nnc(C(F)F)o2)cc1F)c1ccccc1` [Compound 21982, 1-(4-(5-(Difluoromethyl)-1,3,4-oxadiazol-2-yl)-2-fluorobenzyl)-3-(2-morpholinoethyl)-1-phenylurea], the “HDAC6 selectivity (fold)” value came to 96 fold and the IC50 amounted to 104 nM.
Taken in the same sequence, the figures for `O=C(NCCN1CC(F)(F)C1)N(Cc1ccc(-c2nnc(C(F)F)o2)cc1F)c1ccccc1` [Compound 21983, 3-(2-(3,3-Difluoroazetidin-1-yl)ethyl)-1-(4-(5-(difluoromethyl)-1,3,4-oxadiazol-2-yl)-2-fluorobenzyl)-1-phenylurea] were 63 fold and 160 nM.
Regarding `O=C(CN1CCN(CCNC(=O)N(Cc2ccc(-c3nnc(C(F)F)o3)cc2F)c2ccccc2)CC1)N1CCOCC1` [Compound 21984, 1-(4-(5-(Difluoromethyl)-1,3,4-oxadiazol-2-yl)-2-fluorobenzyl)-3-(2-(4-(2-morpholino-2-oxoethyl)piperazin-1-yl)ethyl)-1-phenylurea], the “HDAC6 selectivity (fold)” value is reported as 107 fold and the IC50 amounted to 93 nM.
As for `O=C(NCCN1CCCOCC1)N(Cc1ccc(-c2nnc(C(F)F)o2)cc1F)c1ccccc1` [Compound 21986, 3-(2-(1,4-Oxazepan-4-yl)ethyl)-1-(4-(5-(difluoromethyl)-1,3,4-oxadiazol-2-yl)-2-fluorobenzyl)-1-phenylurea], the “HDAC6 selectivity (fold)” value came to 207 fold and the IC50 was determined as 48 nM.
For `O=C(NCCN1CCC[C@@H]1C(F)(F)F)N(Cc1ccc(-c2nnc(C(F)F)o2)cc1F)c1ccccc1` [Compound 21987, (R)-1-(4-(5-(difluoromethyl)-1,3,4-oxadiazol-2-yl)-2-fluorobenzyl)-1-phenyl-3-(2-(2-(trifluoromethyl)pyrrolidin-1-yl)ethyl)urea] the same measures were 47 fold and 213 nM.
For `O=C(NCCN1CCC[C@H]1C(F)(F)F)N(Cc1ccc(-c2nnc(C(F)F)o2)cc1F)c1ccccc1` [Compound 21988, (S)-1-(4-(5-(difluoromethyl)-1,3,4-oxadiazol-2-yl)-2-fluorobenzyl)-1-phenyl-3-(2-(2-(trifluoromethyl)pyrrolidin-1-yl)ethyl)urea] the same measures were 33 fold and 301 nM.
For `CC1CCN(CCNC(=O)N(Cc2ccc(-c3nnc(C(F)F)o3)cc2F)c2ccccc2)CC1` [Compound 21989, 1-(4-(5-(Difluoromethyl)-1,3,4-oxadiazol-2-yl)-2-fluorobenzyl)-3-(2-(4-methylpiperidin-1-yl)ethyl)-1-phenylurea], the “HDAC6 selectivity (fold)” value amounted to 80 fold and the IC50 came out at 124 nM.
As for `O=C(NCCN1CCC(F)CC1)N(Cc1ccc(-c2nnc(C(F)F)o2)cc1F)c1ccccc1` [Compound 21990, 1-(4-(5-(Difluoromethyl)-1,3,4-oxadiazol-2-yl)-2-fluorobenzyl)-3-(2-(4-fluoropiperidin-1-yl)ethyl)-1-phenylurea], the “HDAC6 selectivity (fold)” value was 100 fold and the IC50 was 100 nM.
On to `O=C1CCN(CCNC(=O)N(Cc2ccc(-c3nnc(C(F)F)o3)cc2F)c2ccccc2)CC1` [Compound 21991, 1-(4-(5-(Difluoromethyl)-1,3,4-oxadiazol-2-yl)-2-fluorobenzyl)-3-(2-(4-oxopiperidin-1-yl)ethyl)-1-phenylurea], for which the “HDAC6 selectivity (fold)” value stood at 120 fold and the IC50 worked out at 83 nM.
Regarding `C[C@@H]1CN(CCNC(=O)N(Cc2ccc(-c3nnc(C(F)F)o3)cc2F)c2ccccc2)C[C@H](C)N1` [Compound 21992, 1-(4-(5-(Difluoromethyl)-1,3,4-oxadiazol-2-yl)-2-fluorobenzyl)-3-(2-((3S,5R)-3,5-dimethylpiperazin-1-yl)ethyl)-1-phenylurea], the “HDAC6 selectivity (fold)” value came to 133 fold and the IC50 was determined as 75 nM.
For `CN1CCN(CCNC(=O)N(Cc2ccc(-c3nnc(C(F)F)o3)cc2F)c2ccccc2)CC1` [Compound 21993, 1-(4-(5-(Difluoromethyl)-1,3,4-oxadiazol-2-yl)-2-fluorobenzyl)-3-(2-(4-methylpiperazin-1-yl)ethyl)-1-phenylurea], the “HDAC6 selectivity (fold)” value is given as 117 fold and the IC50 amounted to 86 nM.
On to `CCN1CCN(CCNC(=O)N(Cc2ccc(-c3nnc(C(F)F)o3)cc2F)c2ccccc2)CC1` [Compound 21994, 1-(4-(5-(Difluoromethyl)-1,3,4-oxadiazol-2-yl)-2-fluorobenzyl)-3-(2-(4-ethylpiperazin-1-yl)ethyl)-1-phenylurea], for which the “HDAC6 selectivity (fold)” value came to 81 fold and the IC50 was found to be 123 nM.
Taken in the same sequence, the figures for `CC(=O)N1CCN(CCNC(=O)N(Cc2ccc(-c3nnc(C(F)F)o3)cc2F)c2ccccc2)CC1` [Compound 21995, 3-(2-(4-Acetylpiperazin-1-yl)ethyl)-1-(4-(5-(difluoromethyl)-1,3,4-oxadiazol-2-yl)-2-fluorobenzyl)-1-phenylurea] were 111 fold and 90 nM.
With `O=C(NCCN1CCN(CCO)CC1)N(Cc1ccc(-c2nnc(C(F)F)o2)cc1F)c1ccccc1` [Compound 21996, 1-(4-(5-(Difluoromethyl)-1,3,4-oxadiazol-2-yl)-2-fluorobenzyl)-3-(2-(4-(2-hydroxyethyl)piperazin-1-yl)ethyl)-1-phenylurea], the “HDAC6 selectivity (fold)” value is listed as 108 fold and the IC50 worked out at 92 nM.
As to `COCCN1CCN(CCNC(=O)N(Cc2ccc(-c3nnc(C(F)F)o3)cc2F)c2ccccc2)CC1` [Compound 21997, 1-(4-(5-(Difluoromethyl)-1,3,4-oxadiazol-2-yl)-2-fluorobenzyl)-3-(2-(4-(2-methoxyethyl)piperazin-1-yl)ethyl)-1-phenylurea], the “HDAC6 selectivity (fold)” value is reported as 109 fold and the IC50 is 91 nM.

The values are drawn from patent US10717716B2, “1,3,4-oxadiazole derivative compounds as histone deacetylase 6 inhibitor, and the pharmaceutical composition comprising the same” (Chong Kun Dang Pharmaceutical Corp., priority 2015, dated 2020).
